# Measurements from publication PMC9775177, “NLRP3-Inflammasome Inhibition with IZD334 Does Not Reduce Cardiac Damage in a Pig Model of Myocardial Infarction” (Biomedicines, 2022).
# Key:
# NLRP3-inflammasome [1] = assay: In vitro stimulation of porcine PBMCs with LPS and ATP, IL-1β release; type: cell-based; details: porcine PBMCs and whole blood, LPS 1 µg/mL 3 h, then 5 mM ATP 1 h
# Description: To confirm the ability of IZD334 to effectively attenuate porcine NLRP3-inflammasome signaling, we used a previously standardized study protocol. In short, porcine peripheral blood mononuclear cells (PBMCs) were isolated from healthy porcine animals. Whole blood samples and isolated PBMCs were stimulated with lipopolysaccharide (LPS) (1 µg/mL, L4516, Sigma-Aldrich, St. Louis, MO, USA) and increasing concentrations of IZD334. After three h of incubation, 5 mM adenosine triphosphate (ATP) (A1852, Sigma-Aldrich, St. Louis, MO, USA) was added for 1 h to induce inflammasome activation. IL-1β release was measured in the supernatant with a Luminex Immunoasssay specific for porcine IL-1β (EPX01A-66048-901, ProcartaTM Simplex, eBioscience, ThermoFisher, San Diego, CA, USA).
# In short, porcine peripheral blood mononuclear cells (PBMCs) were isolated from healthy porcine animals using Ficoll density-gradient centrifugation. Whole blood samples and isolated PBMCs were stimulated with lipopolysaccharide (LPS) (1 µg/mL, L4516, Sigma-Aldrich, St. Louis, MO, USA) and increasing concentrations of IZD334 (top concentration of 10 µM with an 8-point half-log dilution). […] IL-1β release was measured in the supernatant with a Luminex Immunoasssay specific for porcine IL-1β (ProcartaTM Simplex, eBioscience, San Diego, CA, USA).
# NLRP3-inflammasome [2] = assay: Ex vivo stimulation assay of whole blood after in vivo IZD334 infusion, IL-1β release; parameters: species or system pigs; details: whole blood taken 60 min after in vivo infusion of 10 mg/kg, LPS + ATP; before infusion 11856 ± 1969 ng/mL, p < 0.001
# Description: To more specifically determine in vivo target engagement, whole blood was obtained at baseline (prior to IZD334 infusion) and 60 min after in vivo IZD334 infusion (10 mg/kg). These samples were then stimulated with LPS and ATP in a similar fashion as in the previously described experiments. IL-1β release was measured in the supernatant with a Luminex Immunoassay specific for porcine IL-1β (ProcartaTM Simplex, eBioscience, San Diego, CA, USA).
# [3] = system: pig model of myocardial infarction; assay: In vivo MI study: serological and histological read-outs; parameters: species or system pigs; details: 1, 3, 10 mg/kg groups
# Description: Circulating leukocyte numbers at different time points after reperfusion were measured by whole-blood analysis using an automated hematological cell-counter (Cell-Dyn Sapphire, Abbott, Santa Clara, CA, USA). Plasma samples were obtained by whole-blood centrifugation at 1850× g and were immediately stored at −80 °C. C-reactive protein (CRP) levels were measured using solid phase DuoSet sandwich ELISA (DY1707, R&D Systems, Minneapolis, MN, USA) according to the manufacturer’s protocol. Troponin I levels were measured using a clinical chemistry analyzer (AU5811, Beckman Coulter, Woerden, The Netherlands). Histological analysis of collagen, myocardial immune cells, neutrophils, and monocyte infiltration is described in the Appendix A.
# Infarcted and border zoned myocardial tissues were collected, and protein was isolated using a Roche protein isolation kit (cOmplete™ Lysis-M EDTA-free, Roche, Basel, Switzerland). IL-1β protein was measured with a Luminex Immunoassay specific for pig IL-1β (ProcartaPlex Pig IL-1β simplex Cat# EXP01A-66048-901 Invitrogen, Thermo Fisher Scientific, MA, USA) and corrected for total protein. For further histological analysis, infarcted and BZ myocardial tissue was processed, paraffin-imbedded, and cut into 5 µm sections after being conserved in 4% paraformaldehyde for 7 days. Cell nuclei were stained using hematoxylin, and area of cell infiltration was counted for each pig in 5 regions close to fibrotic areas in the infarct zone using Olympus CellSens software. Collagen was visualized using Picosirus Red staining (Abcam). The percentage of collagen was quantified using ImageJ software (1.47v).
# Neutrophil infiltration in myocardial tissue was quantified in paraffin-embedded histological biopsies that were conserved in 4% formaldehyde for at least 7 days with a monoclonal mouse antibody against porcine neutrophils (Clone PM1, BMA Biomedicals, Augst, Switzerland) for 60 min and secondary incubation with Brightvision Poly-AP-anti-mouse (ImmunoLogic, Duiven, The Netherlands) for 30 min followed by development with liquid permanent red.
# Monocyte infiltration was quantified in histological slides of myocardial tissue (paraffin and fresh frozen slides, respectively) using a monoclonal mouse anti-pig antibody against CD107a (Clone JM2E5, Bio-Rad, Kidlington, UK) or a mouse monoclonal antibody against CD14 (Ab23919, Abcam, Cambridge, UK); 60 min of incubation was followed by Brightvision Poly-AP-anti-mouse (ImmunoLogic, Duiven, The Netherlands) for 30 min and development with liquid permanent red.
# [4] = system: pig model of myocardial infarction; assay: In vivo MI study: regional cardiac function and dobutamine echocardiography; parameters: species or system pigs; details: high-dose group (10 mg/kg), 7 days follow-up
# Text: Oral treatment was continued for six days. […] Animals were sacrificed by exsanguination under anesthesia.
# Images were made using a X7-2T transducer on an iE33 ultrasound device (Philips, Eindhoven, The Netherlands). The pig was placed in the right lateral position, and the echo probe was inserted 50–60 cm into the esophagus. We used the 3D full volume option and temporarily interrupted mechanical ventilation to assess LV geometry and function. On day 7 we additionally obtained dobutamine stress-echocardiography to assess regional cardiac function. Images were analyzed in a blinded fashion with validated software, QLab 10.7 (Philips, Eindhoven, The Netherlands).
# [5] = infarct tissue, 7 days after MI
# [6] = myocardial tissue, 7 days after MI
compound,measurement,setting,value
CCN1CCC(S(=O)(=O)[N-]C(=O)Nc2c3c(cc4c2CCC4)CCC3)CC1.[K+] [IZD334],IL-1β release,NLRP3-inflammasome [1],dose-dependently reduced IL-1β release
same,IL-1β release after ex vivo stimulation,NLRP3-inflammasome [2],3968 ng/mL
same,CRP levels versus placebo,[3]; any time point during 7-day follow-up,No significant difference
same,Systemic troponin I levels versus placebo,[3]; 7-day follow-up,trends were similar between the treatment groups
same,Total leukocyte numbers versus placebo,"[3]; circulating, 7-day follow-up",did not differ between groups
same,neutrophil counts versus placebo,"[3]; circulating, 7-day follow-up",did not differ between groups
same,Intra-myocardial IL-1β levels versus placebo,"[3]; infarct and border zone, 7 days after MI",without any difference among treatment arms
same,collagen formation (histology) versus placebo,[3]; [5],no differences between the groups
same,total myocardial immune cell infiltration (histology) versus placebo,[3]; [5],no differences between the groups
same,monocyte infiltration (histology) versus placebo,[3]; [6],no differences between the groups
same,neutrophil infiltration (histology) versus placebo,[3]; [6],no differences between the groups
same,"Fractional area changes at mitral, mid-ventricular, and apical levels versus placebo",[4]; data not shown,equal between groups
same,Septal and inferolateral systolic wall thickness and thickening versus placebo,[4]; mid-ventricular level,did not differ between these groups
